# Measured values from US20160279110A1, “COMPOSITIONS AND METHODS FOR TREATING CANCER” (UNIVERSITY OF ROCHESTER, priority 2015, published 2016).
# Tested on: NMD
# Experiment: mRNA/pre-mRNA ratio of NMD targets by RT-qPCR in MCF7 cells
# Format: cell-based, human
# Conditions: MCF7, 5 μM doxorubicin
# Protocol: In FIG. 9a, MCF7 cells were treated with […] doxorubicin for the hours (h) indicated. mRNA-to-pre-mRNA ratios for the specified transcripts were measured using RT-qPCR and normalized to the ratio at 0 h, which is defined as 100%. The level of each pre-mRNA was also normalized to the level of GAPDH mRNA, and the normalized level at 0 h is defined as 100%. There are separate scales for the graphs of mRNA/pre-mRNA ratios (left) and the graphs of pre-mRNA/GAPDH mRNA ratios (right). Separately, MCF7 cells were transfected with plasmids encoding reporter β-Gl Norm mRNA or β-Gl Ter mRNA together with a plasmid encoding the reference MUP mRNA and subsequently exposed to doxorubicin (5 μM) for the times indicated. Reporter transcript levels were normalized to the level of MUP mRNA, and the normalized level of β-Gl Ter mRNA was presented as a percentage of the normalized level of β-Gl Norm mRNA, which is defined as 100% at 0 h. Error bars=S.E.M., asterisk=p<0.05 relative to the 0 h time point using the Student's t-test. #=pre-mRNA levels below qPCR detection threshold. n>3 independent biological replicates. […] HeLa and MCF7 cells were transfected with either control (Ctrl) siRNA or UPF1 siRNA, the latter to deplete endogenous UPF1 protein to less than 5% of the normal level (top western blots). mRNA/pre-mRNA ratios were then assessed using RT-qPCR as in FIG. 1a (bottom). Western blots derive from and are representative of 3 independent biological replicates used for the corresponding RT-qPCR analyses. Error bars=S.E.M., asterisk=p<0.05 relative to control siRNA using the Student's t-test. n=3 independent biological replicates.
# Cells were homogenized, and RNA was purified using RNeasy mini kits (Qiagen). To ensure linearity of both reverse transcription (RT) and qPCR analyses, 17 standard concentrations were constructed using two-fold serial dilutions of total-cell RNA, beginning with 2 μg. Experimental sample input was 200 ng of RNA. RT was conducted using Superscript III (Invitrogen) according to manufacturer's directions and 100 ng of random hexamer (Invitrogen) in a 20 μl reaction volume. Thermal cycling was as follows: 25° C. for 5 min; 42° C. for 60 min; 50° C. for 60 min; and 75° C. for 10 min. Reactions were diluted to a final volume of 80 μl with water and used for qPCR.
# qPCR was conducted using FAST SYBR green master mix (ABI; Foster City, Calif.) according to manufacturer's directions. […]
# The stability of a panel of known NMD target mRNAs in human MCF7 breast cancer cells during doxorubicin treatment was examined. […] To support this, the level of each mRNA was measured relative to the level of the pre-mRNA from which it derives as a function of time after doxorubicin treatment to control for transcriptional effects. […]
structure (smiles),measurement,setting,value
"COc1cccc2c1C(=O)c1c(O)c3c(c(O)c1C2=O)C[C@@](O)(C(=O)CO)C[C@@H]3O[C@H]1C[C@H](N)[C@H](O)[C@H](C)O1 [doxorubicin, Doxorubicin]","mRNA/pre-mRNA ratio of PANK2, TSTD2, NAT9",,increases for all three transcripts
same,CDKN1A mRNA/pre-mRNA ratio increase relative to 0 h,5 h,~5.7 fold
same,CDKN1A pre-mRNA level decrease,5 h,~3.2 fold
same,"mRNA/pre-mRNA ratios of CDKN1A, GADD45α, and GADD45β",by 5 h,significantly increased
